Results taken from ChEMBL document CHEMBL1201862, “PubChem BioAssay data set” (2004).
Activity calls are given as the source filed them. No rule for the calls is given here.

Key:
[1] = molecular target: Dual specificity tyrosine-phosphorylation-regulated kinase 3 (Homo sapiens, UniProt O43781); format: functional;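 also: measured as one member of a broad kinase panel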
[2] = molecular target: Ribosomal protein S6 kinase alpha-3 (Homo sapiens, UniProt P51812); format: functional;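 also: measured within a kinome-wide profiling panel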
Chain of Ribosomal protein S6 kinase alpha-3 (P51812 whole entry): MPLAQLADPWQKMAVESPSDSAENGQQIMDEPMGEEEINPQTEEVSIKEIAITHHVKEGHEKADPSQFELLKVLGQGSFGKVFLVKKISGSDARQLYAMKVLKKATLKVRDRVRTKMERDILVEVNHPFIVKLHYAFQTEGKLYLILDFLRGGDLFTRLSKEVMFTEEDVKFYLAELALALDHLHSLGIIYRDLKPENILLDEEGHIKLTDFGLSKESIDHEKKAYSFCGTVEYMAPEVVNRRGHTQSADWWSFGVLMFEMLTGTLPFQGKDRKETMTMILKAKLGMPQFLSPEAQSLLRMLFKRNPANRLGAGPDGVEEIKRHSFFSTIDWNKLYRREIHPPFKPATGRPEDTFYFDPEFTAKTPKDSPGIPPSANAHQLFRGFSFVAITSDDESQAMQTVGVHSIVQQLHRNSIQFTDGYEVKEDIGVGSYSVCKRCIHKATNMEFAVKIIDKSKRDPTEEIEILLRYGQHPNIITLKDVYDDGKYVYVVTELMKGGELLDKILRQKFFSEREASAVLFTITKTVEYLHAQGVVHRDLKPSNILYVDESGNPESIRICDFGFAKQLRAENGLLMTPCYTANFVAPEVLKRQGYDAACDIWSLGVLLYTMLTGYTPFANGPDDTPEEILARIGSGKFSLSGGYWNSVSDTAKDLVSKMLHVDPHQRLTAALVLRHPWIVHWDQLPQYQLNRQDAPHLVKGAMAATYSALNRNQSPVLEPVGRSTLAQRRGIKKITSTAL

Chain of Dual specificity tyrosine-phosphorylation-regulated kinase 3 (O43781 whole entry): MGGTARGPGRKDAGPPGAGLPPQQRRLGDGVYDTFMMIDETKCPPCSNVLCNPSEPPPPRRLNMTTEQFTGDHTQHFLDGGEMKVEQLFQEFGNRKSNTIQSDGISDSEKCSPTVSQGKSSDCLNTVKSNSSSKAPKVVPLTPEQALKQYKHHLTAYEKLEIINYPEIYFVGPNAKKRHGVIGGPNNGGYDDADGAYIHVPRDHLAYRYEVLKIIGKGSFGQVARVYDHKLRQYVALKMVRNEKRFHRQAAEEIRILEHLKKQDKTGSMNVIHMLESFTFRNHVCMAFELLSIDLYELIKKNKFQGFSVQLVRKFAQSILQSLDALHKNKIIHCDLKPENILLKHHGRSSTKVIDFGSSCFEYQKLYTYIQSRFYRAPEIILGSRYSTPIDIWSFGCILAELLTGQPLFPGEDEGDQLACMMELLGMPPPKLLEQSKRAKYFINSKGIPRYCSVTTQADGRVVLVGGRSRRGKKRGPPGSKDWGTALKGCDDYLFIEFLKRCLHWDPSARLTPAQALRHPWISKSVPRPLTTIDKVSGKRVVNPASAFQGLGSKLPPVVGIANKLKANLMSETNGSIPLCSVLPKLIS

Ki [1]: > 6.31 µM (inactive) | Ki [2]: > 5.01 µM (inactive)
Compound: Cc1ccc2nccc(NC(=O)Nc3cccc(C(F)(F)F)n3)c2c1
